Laboratory results from PubChem BioAssay (NCI).
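Values below derive from 48-hour exposures of cells grown in 96-well plates, with endpoints linearly interpolated between the two concentrations bracketing the appropriate inhibition level. Abbreviation: GI50, concentration required for 50% inhibition of growth. TGI denotes the concentration required for complete inhibition of growth.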

Legend:
Assay in all cases: NCI anticancer screen, dose series, 48 h
DU-145 prostate = test system: DU-145 prostate
MCF7 breast = test system: MCF7 breast
MDA-MB-435 = test system: MDA-MB-435
MDA-N = test system: MDA-N
MDA-MB-231 breast = test system: MDA-MB-231 breast
T-47D breast = test system: T-47D breast
DLD-1 colon = test system: DLD-1 colon
DMS 114 small cell lung = test system: DMS 114 small cell lung
DMS 273 small cell lung = test system: DMS 273 small cell lung
KM20L2 colon = test system: KM20L2 colon
M19-MEL melanoma = test system: M19-MEL melanoma
SNB-78 CNS = test system: SNB-78 CNS
XF 498 CNS = test system: XF 498 CNS
786-0 renal = test system: 786-0 renal
LXFL 529 NSCLC = test system: LXFL 529 NSCLC

SMILES | TGI (DU-145 prostate) [µM] | TGI (MCF7 breast) [µM] | TGI (MDA-MB-435) [µM] | TGI (MDA-N) [µM] | TGI (MDA-MB-231 breast) [µM] | TGI (T-47D breast) [µM] | TGI (DLD-1 colon) [µM] | TGI (DMS 114 small cell lung) [µM] | TGI (DMS 273 small cell lung) [µM] | TGI (KM20L2 colon) [µM] | TGI (M19-MEL melanoma) [µM] | TGI (SNB-78 CNS) [µM] | TGI (XF 498 CNS) [µM] | TGI (786-0 renal) [µM] | TGI (LXFL 529 NSCLC) [µM] | GI50 (DU-145 prostate) [µM] | GI50 (MCF7 breast) [µM] | GI50 (MDA-MB-231 breast) [µM] | GI50 (MDA-MB-435) [µM] | GI50 (T-47D breast) [µM]
COc1ccc2c(c1)C(=O)/C(=C/c1ccccc1)C2 | > 100 | > 100 | > 100 | > 100 | – | – | – | – | – | – | – | – | – | – | – | – | – | – | – | –
COc1cc(CN(C)N2C(=O)c3cccc4cc([N+](=O)[O-])cc(c34)C2=O)cc(OC)c1OC | > 100 | > 100 | > 100 | > 100 | > 100 | > 100 | – | – | – | – | – | – | – | – | – | – | – | – | – | –
O=C(NC/C=C/CO)c1ccccc1 | – | > 100 | – | – | – | – | > 100 | > 100 | > 100 | > 100 | > 100 | > 100 | > 100 | – | – | – | – | – | – | –
CCCCN(CCCC)C1(c2cc3ccccc3s2)CCCCC1 | 30 | 32.1 | 27.3 | 31.5 | 30.2 | 34.7 | – | – | – | – | – | – | – | 27.3 | – | – | – | – | – | –
C=C1CC2(C)CCC(OC(=O)C3(C)OC3C)C(C)(OC(C)=O)C2CC1=C(C)C (centres undefined) | > 100 | > 100 | > 100 | > 100 | > 100 | > 100 | – | – | – | – | – | – | – | – | – | – | – | – | – | –
CCC1CN2CCc3cc(OC)c(OC)cc3C2CC1CC1c2cc(OC)c(OC)cc2CCN1C(=O)C(Cc1c[nH]c2ccccc12)NC(=O)OC(C)(C)C (centres undefined) | 4.75 | – | 3.4 | 3.49 | 3.66 | 4.16 | 27.4 | 3.06 | 19.1 | 3.8 | 3.11 | 40.5 | 3.19 | 6.74 | 10.8 | – | – | – | – | –
O=C(O)CSc1nc2ccccc2[nH]1 | > 100 | – | > 100 | > 100 | > 100 | > 100 | – | – | – | – | – | – | – | > 100 | – | – | – | – | – | –
CC12CCC3C(CCC4(O)C=CCCC34C=O)C1(O)CC(O)C2c1ccc(=O)oc1 (centres undefined) | – | 0.344 | – | – | – | – | 0.098 | – | 0.0712 | 0.267 | 0.264 | 0.97 | 0.158 | – | – | – | – | – | – | –
O=C1CNC(=O)N1 | – | > 1120 | – | – | – | – | > 1120 | > 1120 | > 1120 | > 1120 | > 1120 | > 1120 | > 11.2 | – | – | – | – | – | – | –
Cc1ccc(NCCO)cc1 | – | – | – | – | – | – | > 100 | > 100 | – | > 100 | – | > 100 | > 100 | > 100 | > 100 | – | – | – | – | –
CCOC(=O)C(CC(C)C)NC(=O)C(N)Cc1ccc(N(CCCl)CCCl)cc1 (centres undefined) | 47.1 | – | 46.2 | 26.1 | 32.3 | 15.1 | 8.27 | 7.54 | 13.2 | 13.5 | 4.57 | – | 3.87 | 6.81 | 8.29 | – | – | – | – | –
CCNc1nc2c(=O)n(C)c(=O)n(C)c2s1 | – | – | – | – | – | – | > 100 | – | – | > 100 | > 100 | > 100 | > 100 | > 100 | > 100 | – | – | – | – | –
CCOC(=O)c1csc(NC(=O)CCN2CCOCC2)n1 | > 100 | > 100 | > 100 | > 100 | > 100 | > 100 | – | – | – | – | – | – | – | – | – | – | – | – | – | –
Nc1ccc(N=Nc2ccc(-c3ccc(N=Nc4c(S(=O)(=O)O)cc5cc(S(=O)(=O)O)c(N=Nc6ccc([N+](=O)[O-])cc6)c(N)c5c4O)cc3)cc2)c2cc(S(=O)(=O)O)ccc12 | – | – | – | – | – | – | > 100 | – | > 100 | > 100 | > 100 | > 100 | > 100 | > 100 | > 100 | – | – | – | – | –
NCCSC1(O)C(=O)c2ccccc2-c2ccccc21 (centres undefined) | 2.28 | 3.64 | 0.207 | – | 2.53 | 2.11 | – | – | – | – | – | – | – | 3.46 | – | – | – | – | – | –
COc1ccc(-c2nnc3c4ccccc4sn23)cc1 | – | – | – | – | – | – | – | 93.8 | > 100 | > 100 | > 100 | > 100 | – | – | > 100 | – | – | – | – | –
Fc1cc(C2=Nn3c(nnc3-c3cc(F)c(Cl)cc3Cl)SC2)c(Cl)cc1Cl | > 100 | > 100 | 83.2 | – | 34.5 | 32.5 | – | – | – | – | – | – | – | – | – | 36.6 | 16.8 | 13.4 | 27.8 | 4.93
